For one experiment, the target named is T1, KCNQ2/3 channels (Homo sapiens, UniProt O43525+O43526).
T1 construct: expressed in transfected cells; host or cells: CHO-K1 cells
Kind of experiment: Fluorescence assay using a voltage-sensitive dye (fluorimetry). The format is cell-based. Particulars: for EC50: CHO-K1 cells expressing KCNQ2/3 channels; for Emax at 1 µM: 50 μM retigabine = 100%, CHO-K1 cells expressing KCNQ2/3, read-out: Fluorimetry % efficacy at 1 μM (50 μM retigabine = 100%). How it is done: […] CHO-K1 cells expressing KCNQ2/3 channels are cultivated adherently at 37° C., 5% CO2 and 95% humidity in cell culture bottles (e.g. 80 cm^2 TC flasks, Nunc) with DMEM-high glucose (Sigma Aldrich, D7777) including 10% FCS (PAN Biotech, e.g. 3302-P270521) or alternatively MEM Alpha Medium (1×, liquid, Invitrogen, #22571), 10% foetal calf serum (FCS) (Invitrogen, #10270-106, heat-inactivated) and the necessary selection antibiotics.
Before being seeded out for the measurements, the cells are washed with a 1×DPBS buffer without Ca^2+/Mg^2+ (e.g. Invitrogen, #14190-094) and detached from the bottom of the culture vessel by means of Accutase (PAA Laboratories, #L11-007) (incubation with Accutase for 15 min at 37° C.). The cell count then present is determined using a CASY™ cell counter (TCC model, Scharfe System) in order subsequently to apply 20,000 to 30,000 cells/well/100 μl of the described nutrient medium, depending on density optimisation for the individual cell line, to 96-well measuring plates of the Corning™ CeIIBIND™ type (flat clear-bottom black polystyrene microplates, #3340). Incubation is then carried out for one hour at room temperature, without gassing or adjusting the humidity, followed by incubation for 24 hours at 37° C., 5% CO2 and 95% humidity.
The voltage-sensitive fluorescent dye from the Membrane Potential Assay Kit (Red™ bulk format part R8123 for FLIPR, MDS Analytical Technologies™) is prepared by dissolving the contents of a vessel of Membrane Potential Assay Kit Red Component A in 200 ml of extracellular buffer (ES buffer, 120 mM NaCl, 1 mM KCl, 10 mM HEPES, 2 mM CaCl2, 2 mM MgCl2, 10 mM glucose; pH 7.4). After removal of the nutrient medium, the cells are washed with 200 μl of ES buffer, then covered with a layer of 100 μl of the dye solution prepared above and incubated for 45 min at room temperature with exclusion of light.
The fluorescence measurements are carried out with a BMG Labtech FLUOstar™, BMG Labtech NOVOstar™ or BMG Labtech POLARstar™ instrument (525 nm excitation, 560 nm emission, bottom-read mode). After incubation of the dye, 50 μl of the substances to be tested in the desired concentrations, or 50 μl of ES buffer for control purposes, are introduced into separate cavities of the measuring plate and incubated for 30 min at room temperature whilst being shielded from light. The fluorescence intensity of the dye is then measured for 5 min and the fluorescence value F1 of each well is thus determined at a given, constant time. 15 μl of a […] KCl solution ([…]) are then added to each well. The change in fluorescence is subsequently measured until all relevant measured values have been obtained (mainly 5-30 min). At a given time after KCl application, a fluorescence value F2 is determined, in this case at the time of the fluorescence peak.
For calculation, the fluorescence intensity F2 is compared with the fluorescence intensity F1, and the agonistic activity of the target compound on the potassium channel is determined therefrom. F2 and F1 are calculated as follows: […]
is determined by adding to the reaction batch only the buffer solution instead of the substance to be tested, determining the value F1K of the fluorescence intensity, adding the potassium ions as described above and measuring a value F2K of the fluorescence intensity. Then F2K and F1K are calculated as follows: […]
Calculations of EC50 values are carried out with the aid of Prism v4.0 software (GraphPad Software™).

The next experiment has as its system Male Sprague-Dawley rats. Description: Low-intensity tail flick in rats. The format is in vivo. Particulars: po, rat; for inhibition in vivo at 10 mg/kg / inhibition in vivo at 21.5 mg/kg: p.o., MPE, read-out: Low-intensity tail flick rat p.o. % effect (dose [mg/kg]). The source says: The antinociceptive activity of the test substance against an acute noxic thermal stimulant was examined in the tail-flick test in rats using the method described by D′Amour and Smith (J. Pharm. Exp. Ther. 72, 74 79 (1941)). Male Sprague-Dawley rats weighing between 200 and 250 g were used (breeder: Janvier, Le Genest St. Isle, France). The animals were placed in special test compartments and the base of the tail was exposed to a focused light beam from an analgesia meter (model 2011, Rhema Labortechnik, Hofheim, Germany). 10 animals were used per group. Before administering a substance according to the invention, the tail-flick latency (time from switching on the light beam to the flick of the tail) was measured twice at an interval of five minutes and the average was defined as the control latency time. The intensity of the light beam was chosen so that the control latency time was 7 to 9 seconds.
The measurement of the tail-flick latency was then repeated 10, 20, 30 and 60 minutes after peroral administration of the substance. The antinociceptive action of the test substance was determined as the increase in the tail-flick latency time using the following formula:
where T0=control latency time before administration of the substance, T1=latency time after administration of the substance, T2=maximum exposure time to the light beam (30 seconds), MPE=maximum possible effect.
Analysis of variance (repeated measures ANOVA) was used to test for statistically significant differences between the substance and vehicle group. The significance level was set at ≦0.05.

As a reminder, the EC50 is the concentration at which the effect is half-maximal. As a reminder, the ED50 is the midpoint of the dose-response relation.

For the molecule `CCSc1nc2cc(C(F)(F)F)ccc2c(C)c1C(=O)NCc1cccc(F)c1` [compound 76], on KCNQ2/3 channels, the EC50 was determined as 92 nM and the Emax at 1 µM stood at 182%. Also, the ED50 in the experiment on Male Sprague-Dawley rats was found to be 6.3 mg/kg.

As to `CCSc1nc2cc(C(F)(F)F)ccc2c(C)c1C(=O)NCc1cccs1` [compound 30, 2-Ethylsulfanyl-4-methyl-N-(thiophen-2-yl-methyl)-7-(trifluoromethyl)-quinoline-3-carboxamide], at KCNQ2/3 channels, the EC50 came out at 82 nM and the Emax at 1 µM came out at 141%. Also, the inhibition in vivo at 10 mg/kg with Male Sprague-Dawley rats came to 31%.

For the molecule `CCSc1nc2cc(C(F)(F)F)ccc2c(C)c1C(=O)NCc1cccnc1` [compound 42], on KCNQ2/3 channels, the EC50 worked out at 1690 nM and the Emax at 1 µM is 175%. For the same molecule, the inhibition in vivo at 21.5 mg/kg in the experiment on Male Sprague-Dawley rats is 51%.

For `Cc1c(C(=O)NCc2cccs2)c(SC(C)(C)C)nc2cc(C(F)(F)F)ccc12` [compound 89], on KCNQ2/3 channels, it took 64 nM to reach a half-maximal effect (EC50) and the Emax at 1 µM is 220%. Besides, the ED50 with Male Sprague-Dawley rats stood at 2.7 mg/kg.

`CCSc1nc2cc(C(F)(F)F)ccc2cc1C(=O)NCc1cccs1` [compound 14]: on KCNQ2/3 channels, the EC50 came out at 291 nM and the Emax at 1 µM came to 223%. Also, the inhibition in vivo at 21.5 mg/kg in the experiment with Male Sprague-Dawley rats came out at 9%.

With `CCSc1nc2cc(F)c(F)cc2c(C)c1C(=O)NCc1ccc(F)cc1` [compound 109], at KCNQ2/3 channels, the concentration giving a half-maximal response (EC50) worked out at 187 nM and the Emax at 1 µM was 144%. Moreover, the inhibition in vivo at 10 mg/kg with Male Sprague-Dawley rats was 7%.

Turning to `CCSc1nc2cc(C(F)(F)F)ccc2c(C)c1C(=O)NCc1ccc(Cl)cc1` [compound 80], at KCNQ2/3 channels, it took 148 nM to reach a half-maximal effect (EC50) and the Emax at 1 µM was determined as 135%.

Take `COC(=O)CCSc1nc2ccccc2cc1C(=O)NCc1cccs1` [compound 2, 3-{[3-[Oxo-(2-thienylmethylamino)methyl]-2-quinolyl]thio}propanoic acid methyl ester]: the Emax at 1 µM at KCNQ2/3 channels is 26%.

Regarding `CCSc1nc2cc(C(F)(F)F)ccc2c(C)c1C(=O)NCCCc1ccccc1` [compound 40], at KCNQ2/3 channels, the midpoint of the response, the EC50, lay at 194 nM and the Emax at 1 µM is 152%.

For `O=C(NCc1cccs1)c1cc2c(C(F)(F)F)cccc2nc1SCCS(=O)(=O)c1ccccc1` [compound 10], the Emax at 1 µM on KCNQ2/3 channels stood at 9%.

As to `CCSc1nc2cccc(O)c2c(C)c1C(=O)NCc1cccc(F)c1` [compound 127], the Emax at 1 µM at KCNQ2/3 channels came to 18%.

With `O=C(NCC1CCCCC1)c1cc2ccccc2nc1SCCS(=O)(=O)c1ccccc1` [compound 19], on KCNQ2/3 channels, the EC50 amounted to 167 nM and the Emax at 1 µM worked out at 71%.

Regarding `CCSc1nc2cc(C(F)(F)F)ccc2c(C)c1C(=O)NCc1cc(F)cc(F)c1` [compound 87], on KCNQ2/3 channels, the EC50 was 144 nM and the Emax at 1 µM came to 159%.

In the case of `CCSc1nc2cc(C(F)(F)F)ccc2c(C)c1C(=O)NCc1ccc(F)c(F)c1` [compound 31], on KCNQ2/3 channels, the EC50 was determined as 145 nM and the Emax at 1 µM was 159%.

Regarding `CCSc1nc2c(OC)cccc2c(C)c1C(=O)NCc1cccc(F)c1` [compound 138], on KCNQ2/3 channels, it took 2240 nM to reach a half-maximal effect (EC50) and the Emax at 1 µM amounted to 91%.

Turning to `CCSc1nc2cccc(OC)c2c(C)c1C(=O)NCc1cccc(F)c1` [compound 125], the Emax at 1 µM on KCNQ2/3 channels amounted to 14%.

On to `Cc1c(C(=O)NCc2cccc(F)c2)c(SC2CCCC2)nc2cc(C(F)(F)F)ccc12` [compound 48], for which, at KCNQ2/3 channels, the EC50 was determined as 56 nM and the Emax at 1 µM was found to be 133%.

As for `CCSc1nc2cc(C(F)(F)F)ccc2c(C)c1C(=O)NCc1cccc(C(F)(F)F)c1` [compound 38], on KCNQ2/3 channels, it took 76 nM to reach a half-maximal effect (EC50) and the Emax at 1 µM was 142%.

Consider `CCSc1nc2c(C(F)(F)F)cccc2c(C)c1C(=O)NCc1ccc(F)cc1` [compound 137], for which, at KCNQ2/3 channels, the EC50 turned out to be 225 nM and the Emax at 1 µM was found to be 166%.

As for `CC(C)(C)CCNC(=O)c1cc2ccccc2nc1SCCS(=O)(=O)c1ccccc1` [compound 23], the Emax at 1 µM on KCNQ2/3 channels is 14%.

For the molecule `CCSc1nc2cc(F)c(F)cc2c(C)c1C(=O)NCc1cccc(F)c1` [compound 118], on KCNQ2/3 channels, the EC50 was found to be 147 nM and the Emax at 1 µM was determined as 149%.

Take `CCSc1nc2cc(C(F)(F)F)ccc2c(C)c1C(=O)NCc1ccccc1Cl` [compound 78]: on KCNQ2/3 channels, the Emax at 1 µM is 33%.

Regarding `CCSc1nc2cc(C(F)(F)F)ccc2c(C)c1C(=O)NCCC(C)(C)C` [compound 25], the Emax at 1 µM at KCNQ2/3 channels was found to be 8%.

On to `CCSc1nc2cc(C(F)(F)F)ccc2c(C)c1C(=O)NCc1ccc(C)s1` [compound 69], for which, at KCNQ2/3 channels, a half-maximal response (EC50) required 858 nM and the Emax at 1 µM amounted to 123%.

For the molecule `CCSc1nc2ccc(C)cc2c(C)c1C(=O)NCc1ccc(F)cc1` [compound 100], at KCNQ2/3 channels, the EC50 is 337 nM and the Emax at 1 µM came to 45%.

As for `O=C(NCc1cccs1)c1cc2ccccc2nc1SCCS(=O)(=O)c1ccccc1` [compound 5, 2-[2-(Phenylsulfonyl)ethylthio]-N-(2-thienyl-methyl)-3-quinoline carboxamide], at KCNQ2/3 channels, the EC50 stood at 2660 nM and the Emax at 1 µM was 98%.

Turning to `CCSc1nc2cc(C(F)(F)F)ccc2c(C)c1C(=O)NCc1ccco1` [compound 110], at KCNQ2/3 channels, the 50% effective concentration (EC50) came to 89 nM and the Emax at 1 µM is 183%.

`CCSc1nc2cc(C(F)(F)F)ccc2c(C)c1C(=O)NCc1ccccc1F` [compound 75]: at KCNQ2/3 channels, the EC50 was 71 nM and the Emax at 1 µM came out at 88%.

For the molecule `CCSc1nc2cc(C(F)(F)F)ccc2c(C)c1C(=O)NCCc1ccccc1` [compound 39], at KCNQ2/3 channels, a half-maximal response (EC50) required 473 nM and the Emax at 1 µM was 48%.

For the molecule `CCSc1nc2ccccc2c(C)c1C(=O)NCc1cccc(F)c1` [compound 92], at KCNQ2/3 channels, the concentration giving a half-maximal response (EC50) is 950 nM and the Emax at 1 µM was 65%.

Take `CCSc1nc2cccc(OC)c2c(C)c1C(=O)NCc1ccc(F)cc1` [compound 126]: the Emax at 1 µM at KCNQ2/3 channels came out at 5%.

As for `CCSc1nc2cc(C(F)(F)F)ccc2c(C)c1C(=O)NCc1cc(F)c(F)cc1F` [compound 34], on KCNQ2/3 channels, the EC50 worked out at 98 nM and the Emax at 1 µM was found to be 72%.

On to `Cc1c(C(=O)NCc2cccc(F)c2)c(SC2CCCCC2)nc2cc(C(F)(F)F)ccc12` [compound 52], for which, at KCNQ2/3 channels, the response was half-maximal at 64 nM (EC50) and the Emax at 1 µM is 102%.

`CCSc1nc2cc(C(F)(F)F)ccc2c(C)c1C(=O)NCCc1cccs1` [compound 72]: on KCNQ2/3 channels, the EC50 worked out at 732 nM and the Emax at 1 µM worked out at 59%.

Consider `CCSc1nc2ccc(C)cc2c(C)c1C(=O)NCc1cccc(F)c1` [compound 99], for which, at KCNQ2/3 channels, it took 623 nM to reach a half-maximal effect (EC50) and the Emax at 1 µM was found to be 90%.

Consider `CCSc1nc2cc(O)ccc2c(C)c1C(=O)NCc1cccc(F)c1` [compound 129], for which the Emax at 1 µM on KCNQ2/3 channels was 12%.

The values above are taken from patent US20100234372A1, “SUBSTITUTED 2-MERCAPTOQUINOLINE-3-CARBOXAMIDES AS KCNQ2/3 MODULATORS” (GRUNENTHAL GMBH, priority 2009, published 2010).
